Results on one compound are retold here after US11759471B2, “Modified release pharmaceutical composition and method for the treatment of mental disorders” (MEDICAL AND PHARMACEUTICAL INDUSTRY TECHNOLOGY AND …, priority 2019, dated 2023).

A short description of data set [1]: In vitro dissolution test, USP Apparatus 2 (paddle). As to conditions: FIG. 1, 3 mg paliperidone in raw form. Type of data set: physicochemical. As to the method:
In vitro dissolution test was conducted in a USP Apparatus 2 (paddle) at 37±0.5° C., 50 rpm, in a solution having 750 mL of 0.1 N HCl and 1000 mL of pH 6.8 buffer
FIG. 1 discloses the dissolution release amount for 25 mg quetiapine in tablet of reference listed drug, 3 mg paliperidone in raw form.

Data set [2] is described as follows: Dissolution of methacrylic acid coated samples in pH1.2 solvent. The format is physicochemical. As to conditions: methacrylic acid coated samples with different encapsulation efficiency. As to the method: Further use carried out with different encapsulation efficiency of experiments, and the samples with different encapsulation efficiency were test pH1.2 solvent dissolve. At the same time, it can be known that the results of the dissolution rate of paliperidone within 2 hours is not more than 10%. The present invention can be achieved effect of delayed release of paliperidone.

For data set [3] the following is noted: as measured by blood concentration; cited from earlier work.

SMILES strings stand for the structures.

As for `Cc1nc2n(c(=O)c1CCN1CCC(c3noc4cc(F)ccc34)CC1)CCCC2O` (stereo not shown) [paliperidone], in data set [1] (after 120 minutes, pH increased from 1.2 to 6.8, slightly decreased), the “dissolution amount of paliperidone after pH change” value was “above 100%”. Also, the “dissolution amount of paliperidone” value in data set [1] (less than 10 minutes, then maintained, pH 1.2) was “above 100%”. For the same compound, the “dissolution rate of paliperidone within 2 hours” value in data set [2] is listed as “not more than 10%”. For the same compound, in data set [3], the “half-life in patients' blood” value is 20 to 28 h.
